Test results published in patent US6680025B2, “Device and method for photoactivation” (Cerus Corporation, priority 1989, dated 2004).

How the values were obtained:
[1] = system: PCR product (primer pair SK-38/39 analogs); test: Post-amplification sterilization with AMT; type: biochemical; conditions: AMT 100 μg/ml, irradiated CE-III; 10^4 to 10^10 copies carried over; 30 cycles
Experimental: A PCR sample is prepared for amplification with the following changes. Instead of AMDMIP, AMT is added prior to amplification at a concentration of 100 μg/ml. Instead of primer pair SK-38/39, the biotinylated analogs, in which biotin has been appended to the 5′ end of one or both primers via an intervening tetraethylenglycol bridge (ester linkage to the biotin), are used. Following 30 cycles of PCR, the reaction vessel is exposed to 300-400 nm light on the CE-III device. Following irradiation, the PCR reaction vessel is opened and the PCR product removed. Free primer is then removed by spinning the PCR reaction mix through a Centricon 100 (Amicon Division, W R Grace & Co., Danvers, Mass.). […] After immobilization, the PCR product is detected with a commercially available biotin detection systems (BluGene Detection System; catalog #8179 SA; BRL). […]
PCR reagents are added and the samples reamplified for 30 cycles, and α-^32P-dCTP is present during the amplification. Following PCR, the reamplified samples are analyzed by denaturing PAGE as described above.
In a third method, a solution of AMT (100 μg/ml) is prepared and irradiated for 15 minutes on the CE-III device. […] The mix is then amplified for 30 cycles in the presence of α-^32P-dCTP, then analyzed by PAGE, as above. […]

tRNA = test: Photobinding of BIOMIP to tRNA, biotin detection (BluGene); type: binding; conditions: 100 μg/ml, irradiated 30 minutes CE-III; no signal from unirradiated controls
Experimental: This example describes photobinding of ^3H-AMIP, ^3H-AMDMIP and BIOMIP to RNA. A tRNA stock was prepared at a concentration of 765 μg/ml in 1×TE/10 mM NaCl. Appropriate amounts of each compound were prepared in separate reaction vessels such that upon addition of 200 μl of the tRNA solution (153 μg) the final concentration of each compound was 100 μg/ml. […] were used in the experiment; the BIOMIP used was unlabelled. Each reaction vessel was then irradiated for 30 minutes at 25° C. in the CE-III device. Identical unirradiated reaction mixtures were used as controls for each compound. Following irradiation, each mixture was extracted with CHCl3 (4×200 μl ) then precipitated (×2). The pellets were resuspended in 1×TE and the binding levels determined as follows. For the two labelled compounds (^3H-AMDMIP and ^3H-AMIP), the nucleic acid concentration was determined optically and radioactivity measured by scintillation counting of aliquots of the stock solutions. Binding of the compounds was then calculated to be as follows:
To determine if binding of BIOMIP to tRNA has occurred, it was necessary to use a non-radioactive format which detected the biotin moiety on the compound. A commercial kit (“BluGene”; BRL) was used for this purpose. The kit instructions were followed for detection of both the control DNA (supplied with the kit) and BIOMIP treated tRNA. […]

Molecule	reamplification of treated PCR product [1]	binding to tRNA by biotin detection (tRNA)
Cc1oc2c(C)c3oc(=O)cc(C)c3cc2c1CN [AMT, 4′-aminomethyl-4,5′,8-trimethylpsoralen]	does not reamplify	
5-N-(N,N′-Dimethyl-(6-{biotinamido}-hexanoate)-1,6-hexanediamine])-methyl-isopsoralen [BIOMIP]		covalently bound to the tRNA
